Measured values published in US20150231236A1, “METHODS FOR TREATING PATIENTS WITH HYPERCHOLESTEROLEMIA THAT IS NOT ADEQUATELY CONTROLLED BY MODERATE-DOSE STATIN THERAPY” (Regeneron Pharmaceuticals, Inc., priority 2014, published 2015).

System: patients with hypercholesterolemia at high CV risk not adequately controlled with atorvastatin (20 mg or 40 mg)
Experiment: Example 2: randomized, double-blind trial, lipid efficacy of mAb316P add-on to atorvastatin vs EZE add-on, atorvastatin dose doubling or switch to rosuvastatin
Type: in vivo, human
Details: for reduced LDL-C levels by: week 24, add-on mAb316P
Description: The present study was a randomized, double-blind, active-comparator, parallel-group study in patients at high CV risk with non-FH or heFH who are not adequately controlled with atorvastatin (20 mg or 40 mg) with or without other lipid-modifying therapy (LMT) (excluding EZE). The study design is illustrated in FIG. 1. Patients who entered the study were taking either atorvastatin 20 mg or atorvastatin 40 mg. The former patients were randomized to 1 of 3 treatment arms (arms 1 to 3); the latter patients were randomized to 1 of 4 treatment arms (arms 4 to 7). The treatment arms are as follows:
(1) mAb316P+atorvastatin 20 mg+placebo-EZE; (2) Placebo-mAb316P+atorvastatin 40 mg+placebo-EZE; and (3) Placebo-mAb316P+atorvastatin 20 mg+EZE 10 mg.
(4) mAb316P+atorvastatin 40 mg+placebo-EZE; (5) Placebo-mAb316P+atorvastatin 80 mg+placebo-EZE; (6). Placebo-mAb316P+rosuvastatin 40 mg+placebo-EZE; and (7) Placebo-mAb316P+atorvastatin 40 mg+EZE 10 mg.
(B) a double-blind treatment period of 24 weeks. Each patient received a SC injection Q2W (mAb316P or placebo-mAb316P) and was administered (or instructed to take) 2 oral blinded medications daily (a statin [atorvastatin or rosuvastatin] and EZE or placebo-EZE). The first injection of mAb316P or placebo-mAb316P was administered at the clinical site on day 1, after study assessments were completed, and as soon as possible after the patient was randomized into the study. The patient/caregiver administered subsequent injections outside of the clinic according to the dosing schedule. On days where the clinic study visit coincided with dosing, the dose of study drugs (injectable and oral) were administered after all study assessments had been performed and all laboratory samples collected. The last dose of mAb316P or placebo-mAb316P was administered at week 22. The last dose of daily oral study drugs was administered at week 24. At week 12, based on their baseline CV risk, certain patients randomized to mAb316P in a blinded manner, had their dose increased as follows:
Each patient received a subcutaneous (SC) injection once every two weeks (Q2W) (mAb316P or placebo-mAb316P) and took 2 oral blinded medications daily (a statin [atorvastatin or rosuvastatin] and EZE or placebo-EZE).
The injectable study treatment was a single SC injection of 1 mL for a 75 mg or 150 mg dose of mAb316P or placebo-mAb316P provided in an auto-injector, administered in the abdomen, thigh, or outer area of the upper arm. The first injection of study drug was administered at the clinical site, as soon as possible after the patient was randomized into the study. The patient was monitored at the clinical site for at least 30 minutes following the first injection. The patient/caregiver administered subsequent injections outside of the clinic, according to the dosing schedule. On days where the clinic study visit coincided with dosing, the dose of study drug was administered after all study assessments have been performed and all laboratory samples collected.
The dose of mAb316P was increased, in a blinded manner, from 75 mg to 150 mg SC Q2W, starting at week 12, based on baseline CV risk in the following circumstances:
The primary efficacy endpoint was the percent change in calculated LDL-C from baseline to week 24, which is defined as: 100× (calculated LDL-C value at week 24−calculated LDL-C value at baseline)/calculated LDL-C value at baseline. The baseline calculated LDL-C value was the last LDL-C level obtained before the first double-blind study drug injection. The calculated LDL-C at week 24 will be the LDL-C level obtained within the week 24 analysis window and during the main efficacy period. The main efficacy period was defined as the time from the first double-blind study drug injection up to 21 days after the last double-blind study drug injection or up to the upper limit of the week 24 analysis window, whichever comes first.
Total-C, HDL-C, TG, ApoB, ApoA-1, and Lp (a) were directly measured by a central laboratory. […]

[1] = ITT Population, Comparison 1: mAb316P + atorva 20 mg arm vs. atorva 40 mg arm
[2] = ITT Population, Comparison 2: mAb316P + atorva 20 mg arm vs. EZE + atorva 20 mg arm
[3] = ITT Population, Comparison 3: mAb316P + atorva 40 mg arm vs. atorva 80 mg arm
[4] = ITT Population, Comparison 4: mAb316P + atorva 40 mg arm vs. rosuva 40 mg arm
[5] = ITT Population, Comparison 5: mAb316P + atorva 40 mg arm vs. EZE + atorva 40 mg arm
[6] = mITT Population, Comparison 1: mAb316P + atorva 20 mg arm vs. atorva 40 mg arm
[7] = mITT Population, Comparison 2: mAb316P + atorva 20 mg arm vs. EZE + atorva 20 mg arm
[8] = mITT Population, Comparison 3: mAb316P + atorva 40 mg arm vs. atorva 80 mg arm
[9] = mITT Population, Comparison 4: mAb316P + atorva 40 mg arm vs. rosuva 40 mg arm
[10] = mITT Population, Comparison 5: mAb316P + atorva 40 mg arm vs. EZE + atorva 40 mg arm

Substance: mAb316P: human anti-PCSK9 antibody; heavy chain SEQ ID NO:5, light chain SEQ ID NO:9
- Delta, percent change from baseline of Apo B to week 24 [1]: −29.3%
- Delta, percent change from baseline of Apo-B to week 12 [1]: −31.5%
- Delta, percent change from baseline of HDL-C to week 24 [1]: 2.9%
- Delta, percent change from baseline of Lp(a) to week 24 [1]: −3.4%
- Delta, percent change from baseline of Non-HDL-C to week 12 [1]: −33.5%
- Delta, percent change from baseline of Total-C to week 12 [1]: −22.6%
- Delta, percent change from baseline of Total-C to week 24 [1]: −23.1%
- Delta, percent change from baseline of calculated LDL-C to week 12 [1]: −39.8%
- Delta, percent change from baseline of calculated LDL-C to week 24 [1]: −39.1%
- Delta, percent change from baseline of non-HDL-C to week 24 [1]: −30.4%
- Odds Ratio, proportion of patients reaching calculated LDL-C < 70 mg/dL at Week 24 [1]: 28.9
- Odds Ratio, proportion of very high CV risk patients reaching calculated LDL-C < 70 mg/dL or high CV risk patients reaching calculated LDL-C < 100 mg/dL at Week 24 [1]: 16.3
- Delta, percent change from baseline of Apo B to week 24 [2]: −23.6%
- Delta, percent change from baseline of Apo-B to week 12 [2]: −25.3%
- Delta, percent change from baseline of HDL-C to week 24 [2]: 4.9%
- Delta, percent change from baseline of Lp(a) to week 24 [2]: −13.0%
- Delta, percent change from baseline of Non-HDL-C to week 12 [2]: −23.4%
- Delta, percent change from baseline of Total-C to week 12 [2]: −15.8%
- Delta, percent change from baseline of Total-C to week 24 [2]: −15.8%
- Delta, percent change from baseline of calculated LDL-C to week 12 [2]: −25.8%
- Delta, percent change from baseline of calculated LDL-C to week 24 [2]: −23.6%
- Delta, percent change from baseline of non-HDL-C to week 24 [2]: −21.6%
- Odds Ratio, proportion of patients reaching calculated LDL-C < 70 mg/dL at Week 24 [2]: 4.7
- Odds Ratio, proportion of very high CV risk patients reaching calculated LDL-C < 70 mg/dL or high CV risk patients reaching calculated LDL-C < 100 mg/dL at Week 24 [2]: 3.7
- Delta, percent change from baseline of Apo B to week 24 [3]: −38.4%
- Delta, percent change from baseline of Apo-B to week 12 [3]: −26.7%
- Delta, percent change from baseline of HDL-C to week 24 [3]: 2.9%
- Delta, percent change from baseline of Lp(a) to week 24 [3]: −21.1%
- Delta, percent change from baseline of Non-HDL-C to week 12 [3]: −29.3%
- Delta, percent change from baseline of Total-C to week 12 [3]: −19.1%
- Delta, percent change from baseline of Total-C to week 24 [3]: −28.9%
- Delta, percent change from baseline of calculated LDL-C to week 12 [3]: −36.0%
- Delta, percent change from baseline of calculated LDL-C to week 24 [3]: −49.2%
- Delta, percent change from baseline of non-HDL-C to week 24 [3]: −41.1%
- Odds Ratio, proportion of patients reaching calculated LDL-C < 70 mg/dL at Week 24 [3]: 116.8
- Odds Ratio, proportion of very high CV risk patients reaching calculated LDL-C < 70 mg/dL or high CV risk patients reaching calculated LDL-C < 100 mg/dL at Week 24 [3]: 92.5
- Delta, percent change from baseline of Apo B to week 24 [4]: −30.9%
- Delta, percent change from baseline of Apo-B to week 12 [4]: −22.2%
- Delta, percent change from baseline of HDL-C to week 24 [4]: 2.0%
- Delta, percent change from baseline of Lp(a) to week 24 [4]: −25.9%
- Delta, percent change from baseline of Non-HDL-C to week 12 [4]: −22.5%
- Delta, percent change from baseline of Total-C to week 12 [4]: −15.4%
- Delta, percent change from baseline of Total-C to week 24 [4]: −21.9%
- Delta, percent change from baseline of calculated LDL-C to week 12 [4]: −27.3%
- Delta, percent change from baseline of calculated LDL-C to week 24 [4]: −32.6%
- Delta, percent change from baseline of non-HDL-C to week 24 [4]: −30.2%
- Odds Ratio, proportion of patients reaching calculated LDL-C < 70 mg/dL at Week 24 [4]: 13.2
- Odds Ratio, proportion of very high CV risk patients reaching calculated LDL-C < 70 mg/dL or high CV risk patients reaching calculated LDL-C < 100 mg/dL at Week 24 [4]: 6.1
- Delta, percent change from baseline of Apo B to week 24 [5]: −27.6%
- Delta, percent change from baseline of Apo-B to week 12 [5]: −15.9%
- Delta, percent change from baseline of HDL-C to week 24 [5]: 5.6%
- Delta, percent change from baseline of Lp(a) to week 24 [5]: −31.0%
- Delta, percent change from baseline of Non-HDL-C to week 12 [5]: −14.8%
- Delta, percent change from baseline of Total-C to week 12 [5]: −9.8%
- Delta, percent change from baseline of Total-C to week 24 [5]: −18.4%
- Delta, percent change from baseline of calculated LDL-C to week 12 [5]: −20.9%
- Delta, percent change from baseline of calculated LDL-C to week 24 [5]: −31.4%
- Delta, percent change from baseline of non-HDL-C to week 24 [5]: −26.6%
- Odds Ratio, proportion of patients reaching calculated LDL-C < 70 mg/dL at Week 24 [5]: 9.9
- Odds Ratio, proportion of very high CV risk patients reaching calculated LDL-C < 70 mg/dL or high CV risk patients reaching calculated LDL-C < 100 mg/dL at Week 24 [5]: 7.9
- patients achieving the more stringent LDL-C goal of <70 mg/dL (Week 24, calculated LDL-C, across atorvastatin 20 mg and 40 mg regimens): 77-79%
- reduced LDL-C levels by (atorvastatin 20 mg regimen, add-on ezetimibe or doubling of atorvastatin dose): 44.1%
- reduced LDL-C levels by (atorvastatin 40 mg regimen, add-on ezetimibe, doubling of atorvastatin dose or switch to rosuvastatin 40 mg): 54.0%
- Delta, percent change from baseline of Apo B to week 24 [6]: −32.6%
- Delta, percent change from baseline of calculated LDL-C to week 12 [6]: −44.5%
- Delta, percent change from baseline of calculated LDL-C to week 24 [6]: −42.5%
- Delta, percent change from baseline of non-HDL-C to week 24 [6]: −33.0%
- Odds Ratio, proportion of patients reaching calculated LDL-C < 70 mg/dL at Week 24 [6]: 28.8
- Odds Ratio, proportion of very high CV risk patients reaching calculated LDL-C < 70 mg/dL or high CV risk patients reaching calculated LDL-C < 100 mg/dL at Week 24 [6]: 24.6
- Delta, percent change from baseline of Apo B to week 24 [7]: −25.1%
- Delta, percent change from baseline of calculated LDL-C to week 12 [7]: −26.6%
- Delta, percent change from baseline of calculated LDL-C to week 24 [7]: −24.9%
- Delta, percent change from baseline of non-HDL-C to week 24 [7]: −22.4%
- Odds Ratio, proportion of patients reaching calculated LDL-C < 70 mg/dL at Week 24 [7]: 4.8
- Odds Ratio, proportion of very high CV risk patients reaching calculated LDL-C < 70 mg/dL or high CV risk patients reaching calculated LDL-C < 100 mg/dL at Week 24 [7]: 5.0
- Delta, percent change from baseline of Apo B to week 24 [8]: −38.3%
- Delta, percent change from baseline of calculated LDL-C to week 12 [8]: −36.3%
- Delta, percent change from baseline of calculated LDL-C to week 24 [8]: −52.8%
- Delta, percent change from baseline of non-HDL-C to week 24 [8]: −43.6%
- Odds Ratio, proportion of patients reaching calculated LDL-C < 70 mg/dL at Week 24 [8]: 162.1
- Odds Ratio, proportion of very high CV risk patients reaching calculated LDL-C < 70 mg/dL or high CV risk patients reaching calculated LDL-C < 100 mg/dL at Week 24 [8]: 130.8
- Delta, percent change from baseline of Apo B to week 24 [9]: −29.8%
- Delta, percent change from baseline of calculated LDL-C to week 12 [9]: −27.7%
- Delta, percent change from baseline of calculated LDL-C to week 24 [9]: −35.0%
- Delta, percent change from baseline of non-HDL-C to week 24 [9]: −32.1%
- Odds Ratio, proportion of patients reaching calculated LDL-C < 70 mg/dL at Week 24 [9]: 19.8
- Odds Ratio, proportion of very high CV risk patients reaching calculated LDL-C < 70 mg/dL or high CV risk patients reaching calculated LDL-C < 100 mg/dL at Week 24 [9]: 8.5
- Delta, percent change from baseline of Apo B to week 24 [10]: −26.4%
- Delta, percent change from baseline of calculated LDL-C to week 12 [10]: −20.2%
- Delta, percent change from baseline of calculated LDL-C to week 24 [10]: −33.4%
- Delta, percent change from baseline of non-HDL-C to week 24 [10]: −27.3%
- Odds Ratio, proportion of patients reaching calculated LDL-C < 70 mg/dL at Week 24 [10]: 13.9
- Odds Ratio, proportion of very high CV risk patients reaching calculated LDL-C < 70 mg/dL or high CV risk patients reaching calculated LDL-C < 100 mg/dL at Week 24 [10]: 10.8
